Source: ChEMBL document CHEMBL6074686 (Eur J Med Chem, 2025)
Activity calls are given as the source filed them. The calls are words filed in the database; no cut-off is given here.

Assays:
SK-OV-3 [1] = assay: Inhibition of cell migration in human SK-OV-3 cells assessed as area of migrated cells at 5 nM incubated for 24 hrs by crystal violet staining based inverted microscopic analysis (reference value: 30.1 +/- 1.3 mm^3); type: functional
SK-OV-3 [2] = assay: Induction of cell cycle arrest in human SK-OV-3 cells assessed as increase in G2/M phase cells at 5 nM incubated for 24 hrs PI staining based flow cytometric analysis (reference value: 24.6 +/- 2.0%); type: functional
SK-OV-3 [3] = assay: Inhibition of cell migration in human SK-OV-3 cells assessed as wound closure ratio at 50 nM incubated for 24 hrs by wound healing assay (reference value: 100%); type: functional; parameters: scale not given: the % may be the effect or the level left
SK-OV-3 [4] = assay: Inhibition of cell migration in human SK-OV-3 cells assessed as wound closure ratio at 12.5 nM incubated for 24 hrs by wound healing assay (reference value: 100%); type: functional; parameters: scale not given: the % may be the effect or the level left
A549 [5] = assay: Induction of cell cycle arrest in human A549 cells assessed as downregulation of Cdc-25c expression incubated for 24 hrs by Western blotting analysis; type: functional, cell-based; settings: dose 25-100 nM
A549 [6] = assay: Induction of cell cycle arrest in human A549 cells assessed as accumulation of cells at G2/M phase at 40 nM incubated for 24 hrs by PI staining based flow cytometric analysis relative to control; type: functional
[7] = Toxicity in female BALB/c nude mouse xenografted with human SK-OV-3 cells assessed as drug tolerance reduction in food intake at 30 mg/kg, administered via tail vein for 5 days and measured daily; type: organism-based; settings: in vivo, iv, 120 h, time 5 day
SK-OV-3 [8] = assay: Induction of cell cycle arrest in human SK-OV-3 cells assessed as increase in G2/M phase cells at 40 nM incubated for 24 hrs by PI staining based flow cytometric analysis (reference value: 24.6 +/- 2.0%); type: functional
[9] = Toxicity in female BALB/c nude mouse xenografted with human SK-OV-3 cells assessed as drug tolerance by measuring body weight loss at 15 mg/kg, administered via tail vein for 5 days and measured daily; type: organism-based; settings: in vivo, iv, 120 h, time 5 day
SK-OV-3 [10] = assay: Antitumor activity against human SK-OV-3 cells xenografted xenografted in female BALB/c nude mouse assessed as downregulation of CD-31 expression level in tumor at 10 mg/kg, […] via tail vein once every 2 to 3 days by immunohistochemistry analysis; type: functional, organism-based; settings: time 2-3 day
SK-OV-3 [11] = assay: Induction of cell cycle arrest in human SK-OV-3 cells assessed as upregulation of Cdc-2 expression at 25 to 50 nM incubated for 24 hrs by Western blotting analysis; type: functional, cell-based; settings: dose 25-50 nM
[12] = Toxicity in female BALB/c nude mouse xenografted with human SK-OV-3 cells assessed as drug tolerance by measuring loose stools at 30 mg/kg, administered via tail vein for 5 days and measured daily; type: organism-based, Feces; settings: in vivo, iv, 120 h, time 5 day
SK-OV-3 [13] = assay: Inhibition of cell migration in human SK-OV-3 cells assessed as ratio of migrated cells at 2.5 nM incubated for 24 hrs by Transwell assay (reference value: 100 %); type: functional; parameters: scale not given: the % may be the effect or the level left
SK-OV-3 [14] = assay: Antitumor activity against human SK-OV-3 cells xenografted xenografted in female BALB/c nude mouse assessed as upregulation of cleaved PARP expression level in tumor at 5 to 10 mg/kg, […] via tail vein once every 2 to 3 days by immunohistochemistry analysis; type: functional, organism-based; settings: dose 5-10 mg/kg, time 2-3 day
[15] = Toxicity in female BALB/c nude mouse xenografted with human SK-OV-3 cells assessed as drug tolerance by measuring reduction in water intake at 30 mg/kg, administered via tail vein for 5 days and measured daily; type: organism-based; settings: in vivo, iv, 120 h, time 5 day
[16] = Toxicity in female BALB/c nude mouse xenografted with human SK-OV-3 cells assessed as pathological changes in heart at 5 to 10 mg/kg, […] via tail vein once every 2 to 3 days by H and E staining based analysis; type: organism-based; settings: in vivo, dose lower 5 mg/kg, time lower 2 day, dose upper 10 mg/kg, time upper 3 day
MCF7 [17] = assay: Induction of apoptosis in human MCF7 cells assessed as upregulation of cleaved-PARP expression at 25 to 50 nM incubated for 24 hrs by Western blotting analysis; type: functional, cell-based; settings: dose 25-50 nM
SK-OV-3 [18] = assay: Inhibition of colony formation in human SK-OV-3 cells incubated for 12 days by crystal violet staining based assay; type: functional, cell-based; settings: dose 1.25-20 nM, time 12.0 day
SK-OV-3 [19] = assay: Antitumor activity against human SK-OV-3 cells xenografted in female BALB/c nude mouse assessed as tumor growth inhibition at 5 mg/kg, […] via tail vein once every 2 to 3 days; type: functional; settings: time 2-3 day, read-out: TGI
SK-OV-3 [20] = assay: Induction of cell cycle arrest in human SK-OV-3 cells assessed as increase in G2/M phase cells at 20 nM incubated for 24 hrs PI staining based flow cytometric analysis (reference value: 24.6 +/- 2.0%); type: functional
MCF7 [21] = assay: Inhibition of cell migration in human MCF7 cells assessed as wound closure ratio at 2.5 nM incubated for 24 hrs by wound healing assay (reference value: 100%); type: functional; parameters: scale not given: the % may be the effect or the level left
SK-OV-3 [22] = assay: Inhibition of cell migration in human SK-OV-3 cells assessed as area of migrated cells at 1.25 nM incubated for 24 hrs by crystal violet staining based inverted microscopic analysis (reference value: 30.1 +/- 1.3 mm^3); type: functional
SK-OV-3 [23] = assay: Inhibition of cell migration in human SK-OV-3 cells assessed as area of migrated cells at 2.5 nM incubated for 24 hrs by crystal violet staining based inverted microscopic analysis (reference value: 30.1 +/- 1.3 mm^3); type: functional
SK-OV-3 [24] = assay: Induction of cell cycle arrest in human SK-OV-3 cells assessed as increase in G2/M phase cells incubated for 24 hrs PI staining based flow cytometric analysis; type: functional; settings: dose 2.5-40 nM
[25] = Toxicity in female BALB/c nude mouse xenografted with human SK-OV-3 cells assessed as pathological changes in kidney at 5 to 10 mg/kg, […] via tail vein once every 2 to 3 days by H and E staining based analysis; type: organism-based; settings: in vivo, dose lower 5 mg/kg, time lower 2 day, dose upper 10 mg/kg, time upper 3 day
MCF7 [26] = assay: Inhibition of cell migration in human MCF7 cells assessed as wound closure at 5 nM incubated for 24 hrs by wound healing assay (reference value: 44.5 +/- 8.8%); type: functional; parameters: scale not given: the % may be the effect or the level left
SK-OV-3 [27] = assay: Inhibition of cell migration in human SK-OV-3 cells assessed as ratio of migrated cells at 5 nM incubated for 24 hrs by Transwell assay (reference value: 100 %); type: functional; parameters: scale not given: the % may be the effect or the level left
MCF7 [28] = assay: Induction of apoptosis in human MCF7 cells assessed as increase in apoptotic cells at 6.25 to 100 nM incubated for 24 hrs by IncuCyte live-cell imaging analysis; type: functional, cell-based; settings: dose 6.25-100 nM
SK-OV-3 [29] = assay: Inhibition of cell migration in human SK-OV-3 cells assessed as area of migrated cells at 20 nM incubated for 24 hrs by crystal violet staining based inverted microscopic analysis (reference value: 30.1 +/- 1.3 mm^3); type: functional
SK-OV-3 [30] = assay: Inhibition of cell migration in human SK-OV-3 cells assessed as reduction in wound closure at 12.5 nM incubated for 24 hrs by wound healing assay (reference value: 21.8 +/- 7.6%); type: functional; settings: SK-OV-3, 24 h, values are per cent of control
MCF7 [31] = assay: Inhibition of colony formation in human MCF7 cells incubated for 72 hrs by crystal violet staining based assay; type: functional, cell-based; settings: dose 3.125-50 nM
MCF7 [32] = assay: Inhibition of cell migration in human MCF7 cells assessed as area of migrated cells at 6.25 nM incubated for 24 hrs by crystal violet staining based inverted microscopic analysis (reference value: 18.5 +/- 0.3 mm^3); type: functional

**Q.** With `CNc1nc(N2CCCc3cc(OC)ccc32)c2cc(F)ccc2n1` as the compound, how does the Activity (SK-OV-3 [1]) read?
**A.** 14.7 mm3

**Q.** And the Activity (SK-OV-3 [2])?
**A.** 29.6%

**Q.** And the Activity (SK-OV-3 [3])?
**A.** 22.7%

**Q.** What about the Activity (SK-OV-3 [4]) of the same compound?
**A.** 65.8%

**Q.** And the Activity (A549 [5])?
**A.** Dose-dependent-effect

**Q.** What about the Activity (A549 [6]) of the same compound?
**A.** 88.8%

**Q.** And the Activity [7]?
**A.** Toxic

**Q.** And the Activity (SK-OV-3 [8])?
**A.** 94.5%

**Q.** What about the Activity [9] of the same compound?
**A.** Toxic

**Q.** What about the Activity (SK-OV-3 [10]) of the same compound?
**A.** Active

**Q.** And the Activity (SK-OV-3 [11])?
**A.** Active

**Q.** And the Activity [12]?
**A.** Toxic

**Q.** What about the Activity (SK-OV-3 [13]) of the same compound?
**A.** 62.9%

**Q.** And the Activity (SK-OV-3 [14])?
**A.** Active

**Q.** What about the Activity [15] of the same compound?
**A.** Toxic

**Q.** What about the Activity [16] of the same compound?
**A.** Non-toxic

**Q.** And the Activity (MCF7 [17])?
**A.** Active

**Q.** What about the inhibition (SK-OV-3 [18]) of the same compound?
**A.** Dose-dependent-effect

**Q.** And the inhibition in vivo at 5 mg/kg (SK-OV-3 [19])?
**A.** 34.1%

**Q.** What about the Activity (SK-OV-3 [20]) of the same compound?
**A.** 90.6%

**Q.** What about the Activity (MCF7 [21]) of the same compound?
**A.** 98.8%

**Q.** And the Activity (SK-OV-3 [22])?
**A.** 21.7 mm3

**Q.** And the Activity (SK-OV-3 [23])?
**A.** 18.9 mm3

**Q.** What about the Activity (SK-OV-3 [24]) of the same compound?
**A.** Dose-dependent-effect

**Q.** What about the Activity [25] of the same compound?
**A.** Non-toxic

**Q.** What about the Activity (MCF7 [26]) of the same compound?
**A.** 43.3%

**Q.** And the Activity (SK-OV-3 [27])?
**A.** 48.8%

**Q.** What about the Activity (MCF7 [28]) of the same compound?
**A.** Active

**Q.** What about the Activity (SK-OV-3 [29]) of the same compound?
**A.** 3.6 mm3

**Q.** What about the response, % of control at 0.0125 µM (SK-OV-3 [30]) of the same compound?
**A.** 14.3%

**Q.** And the inhibition (MCF7 [31])?
**A.** Dose-dependent-effect

**Q.** And the Activity (MCF7 [32])?
**A.** 16.4 mm3
